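GI50 is the concentration that inhibits growth by half. TGI denotes the concentration required for complete inhibition of growth.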
How the values were obtained:
Experiment in all cases: NCI tumour cell line growth inhibition, 384-well format
[1] = tested on: 786-0 renal
[2] = tested on: A498 renal
[3] = tested on: A549 NSCLC
[4] = tested on: ACHN renal
[5] = tested on: BT-549 breast
[6] = tested on: CAKI-1 renal
[7] = tested on: CCRF-CEM leukemia
[8] = tested on: COLO 205 colon
[9] = tested on: DU-145 prostate
[10] = tested on: EKVX NSCLC
[11] = tested on: HCC-2998 colon
[12] = tested on: HCT-116 colon
[13] = tested on: HCT-15 colon
[14] = tested on: HL-60(TB) leukemia
[15] = tested on: HOP-62 NSCLC
[16] = tested on: HOP-92 NSCLC
[17] = tested on: HS 578T breast
[18] = tested on: HT29 colon
[19] = tested on: IGROV1 ovarian
[20] = tested on: K-562 leukemia
[21] = tested on: KM12 colon
[22] = tested on: LOX IMVI melanoma
[23] = tested on: M14 melanoma
[24] = tested on: MALME-3M melanoma
[25] = tested on: MCF7 breast
[26] = tested on: MDA-MB-231 breast
[27] = tested on: MDA-MB-435 melanoma
[28] = tested on: MDA-MB-468 breast
[29] = tested on: MOLT-4 leukemia
[30] = tested on: NCI-H226 lung
[31] = tested on: NCI-H23 lung
[32] = tested on: NCI-H322M lung
[33] = tested on: NCI-H460 NSCLC
[34] = tested on: NCI-H522 lung
[35] = tested on: NCI/ADR-RES ovarian
[36] = tested on: OVCAR-3 ovarian
[37] = tested on: OVCAR-4 ovarian
[38] = tested on: OVCAR-5 ovarian
[39] = tested on: OVCAR-8 ovarian
[40] = tested on: PC-3 prostate
[41] = tested on: RPMI-8226 leukemia
[42] = tested on: RXF 393 renal
[43] = tested on: SF-268 CNS
[44] = tested on: SF-295 CNS
[45] = tested on: SF-539 CNS
[46] = tested on: SK-MEL-28 melanoma
[47] = tested on: SK-MEL-5 melanoma
[48] = tested on: SK-OV-3 ovarian
[49] = tested on: SN12C renal
[50] = tested on: SNB-19 CNS
[51] = tested on: SNB-75 CNS
[52] = tested on: SW-620 colon
[53] = tested on: T-47D breast
[54] = tested on: TK-10 renal
[55] = tested on: U251 glioblastoma
[56] = tested on: UACC-257 melanoma
[57] = tested on: UACC-62 melanoma
[58] = tested on: UO-31 renal

**Q.** How did the GI50 [1] turn out when `CC(C)(F)C[C@H](N[C@@H](c1ccc(-c2ccc(S(C)(=O)=O)cc2)cc1)C(F)(F)F)C(=O)NC1(C#N)CC1` was run?
**A.** 21.9 µM

**Q.** What about the TGI [1] of the same compound?
**A.** 53.5 µM

**Q.** And the GI50 [2]?
**A.** 21.3 µM

**Q.** What about the TGI [2] of the same compound?
**A.** 46.7 µM

**Q.** And the GI50 [3]?
**A.** 34.9 µM

**Q.** What about the TGI [3] of the same compound?
**A.** > 100 µM

**Q.** What about the GI50 [4] of the same compound?
**A.** > 100 µM

**Q.** What about the TGI [4] of the same compound?
**A.** > 100 µM

**Q.** What about the GI50 [5] of the same compound?
**A.** 39.7 µM

**Q.** What about the TGI [5] of the same compound?
**A.** > 100 µM

**Q.** What about the GI50 [6] of the same compound?
**A.** 30.5 µM

**Q.** What about the TGI [6] of the same compound?
**A.** > 100 µM

**Q.** What about the GI50 [7] of the same compound?
**A.** > 100 µM

**Q.** And the TGI [7]?
**A.** > 100 µM

**Q.** And the GI50 [8]?
**A.** > 100 µM

**Q.** And the TGI [8]?
**A.** > 100 µM

**Q.** And the GI50 [9]?
**A.** 46.4 µM

**Q.** And the TGI [9]?
**A.** > 100 µM

**Q.** What about the GI50 [10] of the same compound?
**A.** 39.2 µM

**Q.** And the TGI [10]?
**A.** > 100 µM

**Q.** And the GI50 [11]?
**A.** > 100 µM

**Q.** What about the TGI [11] of the same compound?
**A.** > 100 µM

**Q.** What about the GI50 [12] of the same compound?
**A.** > 100 µM

**Q.** And the TGI [12]?
**A.** > 100 µM

**Q.** And the GI50 [13]?
**A.** > 100 µM

**Q.** And the TGI [13]?
**A.** > 100 µM

**Q.** What about the GI50 [14] of the same compound?
**A.** > 100 µM

**Q.** And the TGI [14]?
**A.** > 100 µM

**Q.** And the GI50 [15]?
**A.** 22.8 µM

**Q.** What about the TGI [15] of the same compound?
**A.** 63 µM

**Q.** And the GI50 [16]?
**A.** 11.2 µM

**Q.** What about the TGI [16] of the same compound?
**A.** 28.9 µM

**Q.** And the GI50 [17]?
**A.** 21.2 µM

**Q.** What about the TGI [17] of the same compound?
**A.** 45.3 µM

**Q.** And the GI50 [18]?
**A.** > 100 µM

**Q.** And the TGI [18]?
**A.** > 100 µM

**Q.** And the GI50 [19]?
**A.** > 100 µM

**Q.** What about the TGI [19] of the same compound?
**A.** > 100 µM

**Q.** What about the GI50 [20] of the same compound?
**A.** > 100 µM

**Q.** What about the TGI [20] of the same compound?
**A.** > 100 µM

**Q.** And the GI50 [21]?
**A.** 43.6 µM

**Q.** And the TGI [21]?
**A.** > 100 µM

**Q.** What about the GI50 [22] of the same compound?
**A.** 59.3 µM

**Q.** What about the TGI [22] of the same compound?
**A.** > 100 µM

**Q.** And the GI50 [23]?
**A.** 71.5 µM

**Q.** What about the TGI [23] of the same compound?
**A.** > 100 µM

**Q.** And the GI50 [24]?
**A.** 33.7 µM

**Q.** And the TGI [24]?
**A.** 86.9 µM

**Q.** And the GI50 [25]?
**A.** 27.3 µM

**Q.** And the TGI [25]?
**A.** 91.1 µM

**Q.** What about the GI50 [26] of the same compound?
**A.** 39.6 µM

**Q.** What about the TGI [26] of the same compound?
**A.** > 100 µM

**Q.** And the GI50 [27]?
**A.** 96.2 µM

**Q.** And the TGI [27]?
**A.** > 100 µM

**Q.** What about the GI50 [28] of the same compound?
**A.** 39.4 µM

**Q.** And the TGI [28]?
**A.** > 100 µM

**Q.** What about the GI50 [29] of the same compound?
**A.** 41.1 µM

**Q.** And the TGI [29]?
**A.** > 100 µM

**Q.** What about the GI50 [30] of the same compound?
**A.** 23.5 µM

**Q.** And the TGI [30]?
**A.** 54.6 µM

**Q.** And the GI50 [31]?
**A.** 30.9 µM

**Q.** What about the TGI [31] of the same compound?
**A.** 83 µM

**Q.** And the GI50 [32]?
**A.** 49.8 µM

**Q.** What about the TGI [32] of the same compound?
**A.** > 100 µM

**Q.** What about the GI50 [33] of the same compound?
**A.** 22.4 µM

**Q.** And the TGI [33]?
**A.** 53.8 µM

**Q.** What about the GI50 [34] of the same compound?
**A.** 21.4 µM

**Q.** And the TGI [34]?
**A.** 40.2 µM

**Q.** And the GI50 [35]?
**A.** 88.1 µM

**Q.** What about the TGI [35] of the same compound?
**A.** > 100 µM

**Q.** And the GI50 [36]?
**A.** 31.1 µM

**Q.** And the TGI [36]?
**A.** 76.7 µM

**Q.** What about the GI50 [37] of the same compound?
**A.** 19.8 µM

**Q.** And the TGI [37]?
**A.** 38 µM

**Q.** And the GI50 [38]?
**A.** > 100 µM

**Q.** What about the TGI [38] of the same compound?
**A.** > 100 µM

**Q.** And the GI50 [39]?
**A.** 20.7 µM

**Q.** And the TGI [39]?
**A.** 46.1 µM

**Q.** What about the GI50 [40] of the same compound?
**A.** 41.3 µM

**Q.** And the TGI [40]?
**A.** > 100 µM

**Q.** What about the GI50 [41] of the same compound?
**A.** 55.9 µM

**Q.** And the TGI [41]?
**A.** > 100 µM

**Q.** And the GI50 [42]?
**A.** 18.3 µM

**Q.** What about the TGI [42] of the same compound?
**A.** 35.3 µM

**Q.** And the GI50 [43]?
**A.** 22.1 µM

**Q.** And the TGI [43]?
**A.** 41 µM

**Q.** What about the GI50 [44] of the same compound?
**A.** 22.9 µM

**Q.** And the TGI [44]?
**A.** 63.4 µM

**Q.** What about the GI50 [45] of the same compound?
**A.** 23.1 µM

**Q.** What about the TGI [45] of the same compound?
**A.** 44.1 µM

**Q.** What about the GI50 [46] of the same compound?
**A.** 40.9 µM

**Q.** What about the TGI [46] of the same compound?
**A.** > 100 µM

**Q.** And the GI50 [47]?
**A.** 23 µM

**Q.** What about the TGI [47] of the same compound?
**A.** 55.8 µM

**Q.** And the GI50 [48]?
**A.** 27.3 µM

**Q.** What about the TGI [48] of the same compound?
**A.** 69.6 µM

**Q.** And the GI50 [49]?
**A.** 34.9 µM

**Q.** And the TGI [49]?
**A.** > 100 µM

**Q.** What about the GI50 [50] of the same compound?
**A.** 35.7 µM

**Q.** What about the TGI [50] of the same compound?
**A.** 92.4 µM

**Q.** What about the GI50 [51] of the same compound?
**A.** 20.5 µM

**Q.** What about the TGI [51] of the same compound?
**A.** 37.3 µM

**Q.** What about the GI50 [52] of the same compound?
**A.** > 100 µM

**Q.** What about the TGI [52] of the same compound?
**A.** > 100 µM

**Q.** What about the GI50 [53] of the same compound?
**A.** 36.6 µM

**Q.** What about the TGI [53] of the same compound?
**A.** > 100 µM

**Q.** And the GI50 [54]?
**A.** 33.1 µM

**Q.** What about the TGI [54] of the same compound?
**A.** 97.9 µM

**Q.** What about the GI50 [55] of the same compound?
**A.** 24.7 µM

**Q.** And the TGI [55]?
**A.** 55.5 µM

**Q.** And the GI50 [56]?
**A.** 26.7 µM

**Q.** And the TGI [56]?
**A.** 55.4 µM

**Q.** And the GI50 [57]?
**A.** 42.1 µM

**Q.** What about the TGI [57] of the same compound?
**A.** > 100 µM

**Q.** What about the GI50 [58] of the same compound?
**A.** > 100 µM

**Q.** And the TGI [58]?
**A.** > 100 µM

From PubChem BioAssay (NCI)
